From PubChem BioAssay (NCI) come the findings set out here.

SMILES strings stand for the structures. Several values for one entry are separate records, joined by “and”; a condition that tells them apart may be missing. Equal entries are not always repeated.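 Method: 48-hour compound exposure of cells in 96-well plates, five concentrations, linear interpolation of endpoints. At the GI50, growth is halved. The concentration for full growth arrest is given as TGI.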

Test systems include ACHN renal; HCC-2998 colon; MALME-3M melanoma; NCI-H460 lung; OVCAR-4 ovarian; OVCAR-5 ovarian; RPMI-8226 leukemia; SF-295 CNS; SNB-75 CNS; UO-31 renal.
Common to all, as to experiment: DTP human tumour cell line panel, 48 h

The term GI50 denotes the concentration at which growth is held to half of that of the control. The TGI is the concentration at which net growth stops. Low readings indicate greater sensitivity of the cells, high ones lower sensitivity of the cells.

In the case of `COc1cc(-c2nn(-c3cccc(NC(=O)Nc4ccc(Cl)c(C(F)(F)F)c4)c3)cc2-c2ccncc2)ccc1Cl`, the GI50 is 1.1 µM in the assay with ACHN renal; 1.55 µM with HCC-2998 colon; 0.838 µM with MALME-3M melanoma; 1.11 µM with NCI-H460 lung; 1.29 µM in the assay on OVCAR-4 ovarian; 3.09 µM with OVCAR-5 ovarian. Further, the GI50 is 0.868 µM with RPMI-8226 leukemia, 0.84 µM in the assay with SF-295 CNS, 1.28 µM with SNB-75 CNS and 0.865 µM in the assay with UO-31 renal. For the same compound, the TGI stood at 15.6 µM in the assay with ACHN renal; 7.3 µM with HCC-2998 colon; 2.35 µM in the assay on MALME-3M melanoma; 4.79 µM with NCI-H460 lung; 25.6 µM in the assay with OVCAR-4 ovarian; 11 µM in the assay with OVCAR-5 ovarian. Also, the TGI is 3.25 µM with RPMI-8226 leukemia, 2.54 µM in the assay on SF-295 CNS, 10.3 µM with SNB-75 CNS and 4.1 µM in the assay on UO-31 renal.
Regarding `CCOC(=O)c1[nH]c2cc(Cl)ccc2c1[C@@H](C(=O)NC(C)(C)C)N(CC)C(=O)CCCCC#Cc1cccc2c1CN(C1CCC(=O)NC1=O)C2=O` (stereo not given in full), the GI50 in the assay with ACHN renal is 1.42 µM; in the assay on HCC-2998 colon, 0.225 µM; with MALME-3M melanoma, < 0.01 µM; in the assay on NCI-H460 lung, 3.11 µM; with OVCAR-4 ovarian, < 0.01 µM; in the assay on OVCAR-5 ovarian, 2.08 µM. Besides, the concentration for 50% growth inhibition (GI50) with RPMI-8226 leukemia is 0.185 µM; in the assay with SF-295 CNS, 1.14 µM; in the assay with SNB-75 CNS, < 0.01 µM; in the assay with UO-31 renal, 0.0425 µM. Moreover, the TGI was 13.3 µM in the assay on ACHN renal; 58 µM in the assay on HCC-2998 colon; 0.456 µM in the assay with MALME-3M melanoma; > 54.3 µM in the assay on NCI-H460 lung; 23.5 µM in the assay on OVCAR-4 ovarian; 40.2 µM in the assay on OVCAR-5 ovarian. Also, the TGI in the assay on RPMI-8226 leukemia amounted to 2.88 µM; in the assay on SF-295 CNS, 3.88 µM; in the assay with SNB-75 CNS, 4.81 µM; in the assay with UO-31 renal it was 2.95 µM.
Take `O=C1C2CCN(CC2)C1CN1CCOCC1` (stereo not given): the concentration for total growth inhibition (TGI) in the assay with ACHN renal was found to be 4.18 µM; in the assay on HCC-2998 colon, 29.2 µM; in the assay with MALME-3M melanoma it was 3.28 µM; in the assay on NCI-H460 lung it was 33.7 µM; with OVCAR-4 ovarian, 10.7 µM; with OVCAR-5 ovarian, 13.5 µM. The total growth inhibition concentration (TGI) in the assay on RPMI-8226 leukemia was determined as 13.7 µM; in the assay with SF-295 CNS, 33.9 µM; in the assay with SNB-75 CNS it was 36.2 µM; in the assay on UO-31 renal, 7.14 µM.
In the case of `Cc1ccc(NCC2(/N=C/c3ccccc3)OC(CO)C(O)C2O)cc1` (stereo not given), the TGI in the assay on ACHN renal, in the assay on HCC-2998 colon, with MALME-3M melanoma, in the assay on NCI-H460 lung, in the assay on OVCAR-4 ovarian and in the assay with OVCAR-5 ovarian was > 100 µM throughout. Moreover, the TGI in the assay with RPMI-8226 leukemia, in the assay with SF-295 CNS, in the assay on SNB-75 CNS and with UO-31 renal was > 100 µM in each case.
For the compound `OC1CC2CCC(C1)N2CCCN1c2ccccc2Sc2ccc(Cl)cc21` (stereo not given), the concentration for total growth inhibition (TGI) with ACHN renal was determined as 7.07 µM; in the assay on HCC-2998 colon it was 0.959 µM; in the assay with MALME-3M melanoma it was 3.59 µM; with NCI-H460 lung, 3.25 µM; with OVCAR-4 ovarian, 13.6 µM; in the assay with OVCAR-5 ovarian, 8.01 µM. Besides, the concentration for total growth inhibition (TGI) in the assay with RPMI-8226 leukemia stood at 4.42 µM; with SF-295 CNS, 3.67 µM; in the assay on SNB-75 CNS it was 5.23 µM; in the assay on UO-31 renal, 7.09 µM.
As for `CN(C)CCNc1ccc2ncn3c4ccc(O)cc4c(=O)c1c23`, the TGI with ACHN renal came to 4.6 µM; with HCC-2998 colon it was 12.7 µM; in the assay with MALME-3M melanoma, 14.4 µM; in the assay with NCI-H460 lung, 6.5 µM; in the assay on OVCAR-4 ovarian, 4.89 µM; in the assay on OVCAR-5 ovarian, 15 µM. For the same compound, the TGI turned out to be 13.1 µM with RPMI-8226 leukemia, 14 µM in the assay on SF-295 CNS, 10.2 µM in the assay with SNB-75 CNS and 8.06 µM in the assay on UO-31 renal.
With `COc1ccc(Br)cc1NC(=O)Nc1cccc2c1ccn2Cc1ccnc(N)c1`, the GI50 in the assay on ACHN renal is 5.51 µM and 4.91 µM; in the assay with HCC-2998 colon, 4.41 µM and 4.33 µM; in the assay on MALME-3M melanoma, 12.1 µM and > 10 µM; in the assay with NCI-H460 lung, 3.85 µM and 4.2 µM; in the assay on OVCAR-4 ovarian, 3.85 µM and 5.52 µM; with OVCAR-5 ovarian it was 12.7 µM and > 10 µM. Besides, the GI50 is 2.93 µM and 3.54 µM with RPMI-8226 leukemia; 3.69 µM and 3.61 µM in the assay on SF-295 CNS; 2.19 µM and 5.1 µM with SNB-75 CNS; 9.78 µM and 3.12 µM with UO-31 renal. Further, the total growth inhibition concentration (TGI) in the assay on ACHN renal is 23.2 µM and > 10 µM; in the assay with HCC-2998 colon, 10.1 µM and > 10 µM; in the assay with MALME-3M melanoma it was 32 µM and > 10 µM; in the assay with NCI-H460 lung, 15.1 µM and > 10 µM; with OVCAR-4 ovarian, > 47.8 µM; in the assay on OVCAR-5 ovarian it was 58.4 µM and > 10 µM. In addition, the TGI in the assay on RPMI-8226 leukemia was > 31.6 µM; in the assay on SF-295 CNS it was 17.6 µM and > 10 µM; with SNB-75 CNS it was 42.8 µM and > 10 µM; with UO-31 renal, 26.3 µM and > 10 µM.
